Reference: patent publication US20080292619A1, “Pharmaceutical Composition Containing Meltrin Antagonist” (MOCHIDA PHARMACEUTICAL CO., LTD., priority 2004, published 2008)
In the oligonucleotide strings, read from the 5' end, every base follows the letter of its sugar. An asterisk marks phosphorothioate; unmarked linkages are phosphodiester. Other units and linkages are bracketed, terminal groups are in braces. A string of capitals states the bases alone. d = 2'-deoxy (DNA)

Test system: human meltrin α RNA
Assay: Suppression of human meltrin α expression by antisense compound in RD cell (real time PCR)
Type: cell-based
Conditions: RD cell, corrected by GAPDH
In short: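 RD cells transfected with heat-denatured antisense oligodeoxynucleotide plus Lipofectin in Opti-MEM for 4 h at 37° C, then cultured 18 h. Meltrin α RNA quantified by TaqMan RT-PCR against plasmid standard curve, GAPDH-corrected; suppression vs untreated cells, rated +/++/+++ for ≥30/50/70%.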

Row | Substance | suppression rate of expression, 200 nM | suppression rate of expression, 50 nM
1 | H071: ccatttgacagctacagccc (dC*dC*dA*dT*dT*dT*dG*dA*dC*dA*dG*dC*dT*dA*dC*dA*dG*dC*dC*dC; antisense) | + (“+” when the suppression rate was at least 30%) | –
2 | H008: gccgccgctgagctcttcta (GCCGCCGCTGAGCTCTTCTA; antisense; DNA, all phosphorothioate, methylation of C not given here) | ++ (“++” when the suppression rate was at least 50%) | ++ (“++” when the suppression rate was at least 50%)
3 | H026: gtcgaatattcagcacttct (GTCGAATATTCAGCACTTCT; antisense; DNA, all phosphorothioate, methylation of C not given here) | + (“+” when the suppression rate was at least 30%) | –
4 | H055: tccacgcctaccaacacgat (dT*dC*dC*dA*dC*dG*dC*dC*dT*dA*dC*dC*dA*dA*dC*dA*dC*dG*dA*dT; antisense) | ++ (“++” when the suppression rate was at least 50%) | –
5 | H139: gcccggtggaggggaggaag (GCCCGGTGGAGGGGAGGAAG; antisense; DNA, all phosphorothioate, methylation of C not given here) | +++ (“+++” when the suppression rate was at least 70%) | + (“+” when the suppression rate was at least 30%)
6 | H179: gttgtcaaggggcacagggc (dG*dT*dT*dG*dT*dC*dA*dA*dG*dG*dG*dG*dC*dA*dC*dA*dG*dG*dG*dC; antisense) | ++ (“++” when the suppression rate was at least 50%) | –
7 | H090: ggcccctgtgcagaactctg (dG*dG*dC*dC*dC*dC*dT*dG*dT*dG*dC*dA*dG*dA*dA*dC*dT*dC*dT*dG; antisense) | ++ (“++” when the suppression rate was at least 50%) | –
8 | H197: tgctcagctccaagcagtat (dT*dG*dC*dT*dC*dA*dG*dC*dT*dC*dC*dA*dA*dG*dC*dA*dG*dT*dA*dT; antisense) | ++ (“++” when the suppression rate was at least 50%) | –
9 | H015: cggccttcagtgcagcagct (CGGCCTTCAGTGCAGCAGCT; antisense; DNA, all phosphorothioate, methylation of C not given here) | + (“+” when the suppression rate was at least 30%) | ++ (“++” when the suppression rate was at least 50%)
10 | H188: ccccttccaaacatgctcac (dC*dC*dC*dC*dT*dT*dC*dC*dA*dA*dA*dC*dA*dT*dG*dC*dT*dC*dA*dC; antisense) | + (“+” when the suppression rate was at least 30%) | –
11 | H114: gtgaaccccaaagacactaa (dG*dT*dG*dA*dA*dC*dC*dC*dC*dA*dA*dA*dG*dA*dC*dA*dC*dT*dA*dA; antisense) | + (“+” when the suppression rate was at least 30%) | –
12 | H035: ctgaatcagaatatccccgt (CTGAATCAGAATATCCCCGT; antisense; DNA, all phosphorothioate, methylation of C not given here) | ++ (“++” when the suppression rate was at least 50%) | –
13 | H166: aacaagccttcctgccatgg (dA*dA*dC*dA*dA*dG*dC*dC*dT*dT*dC*dC*dT*dG*dC*dC*dA*dT*dG*dG; antisense) | ++ (“++” when the suppression rate was at least 50%) | –
14 | H137 + 3: ggggctgagggacattcagg (GGGGCTGAGGGACATTCAGG; antisense; DNA, all phosphorothioate, methylation of C not given here) | – | ++ (“++” when the suppression rate was at least 50%)
15 | H049: cggttgtctgccacgatcac (dC*dG*dG*dT*dT*dG*dT*dC*dT*dG*dC*dC*dA*dC*dG*dA*dT*dC*dA*dC; antisense) | + (“+” when the suppression rate was at least 30%) | –
16 | H110: caagccctgggtccggcatg (dC*dA*dA*dG*dC*dC*dC*dT*dG*dG*dG*dT*dC*dC*dG*dG*dC*dA*dT*dG; antisense) | ++ (“++” when the suppression rate was at least 50%) | + (“+” when the suppression rate was at least 30%)
17 | H132 + 15: gtaggaatctggcggcttcc (GTAGGAATCTGGCGGCTTCC; antisense; DNA, all phosphorothioate, methylation of C not given here) | – | + (“+” when the suppression rate was at least 30%)
18 | H115: tggcactgcattgcacactc (dT*dG*dG*dC*dA*dC*dT*dG*dC*dA*dT*dT*dG*dC*dA*dC*dA*dC*dT*dC; antisense) | ++ (“++” when the suppression rate was at least 50%) | –
19 | H139 + 18: acgctaggtgcacgtggggc (ACGCTAGGTGCACGTGGGGC; antisense; DNA, all phosphorothioate, methylation of C not given here) | – | ++ (“++” when the suppression rate was at least 50%)

Row | Substance | suppression rate of expression, 200 nM | suppression rate of expression, 50 nM
20 | H136 + 15: gggacattcaggccgttgag (GGGACATTCAGGCCGTTGAG; antisense; DNA, all phosphorothioate, methylation of C not given here) | – | + (“+” when the suppression rate was at least 30%)
21 | H077: ggcacacccccattcctttc (dG*dG*dC*dA*dC*dA*dC*dC*dC*dC*dC*dA*dT*dT*dC*dC*dT*dT*dT*dC) | + (“+” when the suppression rate was at least 30%) | –
22 | H150: ttggtgtggatattgtggag (dT*dT*dG*dG*dT*dG*dT*dG*dG*dA*dT*dA*dT*dT*dG*dT*dG*dG*dA*dG; antisense) | +++ (“+++” when the suppression rate was at least 70%) | + (“+” when the suppression rate was at least 30%)
23 | H099: aggatcacctgcagaattga (dA*dG*dG*dA*dT*dC*dA*dC*dC*dT*dG*dC*dA*dG*dA*dA*dT*dT*dG*dA; antisense) | + (“+” when the suppression rate was at least 30%) | –
24 | H142: gcctgcctaagtgcaggctt (GCCTGCCTAAGTGCAGGCTT; antisense; DNA, all phosphorothioate, methylation of C not given here) | ++ (“++” when the suppression rate was at least 50%) | ++ (“++” when the suppression rate was at least 50%)
25 | H195: tgcctgggcagtaggtttct (dT*dG*dC*dC*dT*dG*dG*dG*dC*dA*dG*dT*dA*dG*dG*dT*dT*dT*dC*dT; antisense) | ++ (“++” when the suppression rate was at least 50%) | –
26 | H100: actttgccacagttgccata (dA*dC*dT*dT*dT*dG*dC*dC*dA*dC*dA*dG*dT*dT*dG*dC*dC*dA*dT*dA; antisense) | + (“+” when the suppression rate was at least 30%) | –
27 | H196: agggaggtggcggtttgcag (dA*dG*dG*dG*dA*dG*dG*dT*dG*dG*dC*dG*dG*dT*dT*dT*dG*dC*dA*dG; antisense) | +++ (“+++” when the suppression rate was at least 70%) | + (“+” when the suppression rate was at least 30%)
28 | H092: gcccatcgtgcaggtacacg (dG*dC*dC*dC*dA*dT*dC*dG*dT*dG*dC*dA*dG*dG*dT*dA*dC*dA*dC*dG; antisense) | ++ (“++” when the suppression rate was at least 50%) | –
29 | H010: cctcggcgagtcagctccgg (CCTCGGCGAGTCAGCTCCGG; antisense; DNA, all phosphorothioate, methylation of C not given here) | ++ (“++” when the suppression rate was at least 50%) | ++ (“++” when the suppression rate was at least 50%)
30 | H180: ccctgggagcctgcctgcca (dC*dC*dC*dT*dG*dG*dG*dA*dG*dC*dC*dT*dG*dC*dC*dT*dG*dC*dC*dA; antisense) | ++ (“++” when the suppression rate was at least 50%) | –
31 | H234: acaccgggaaagtgaaatgc (DNA dA*dC*dA*dC*dC*dG*dG*dG*dA*dA*dA*dG*dT*dG*dA*dA*dA*dT*dG*dC; antisense) | ++ (“++” when the suppression rate was at least 50%) | –
32 | H172: gcacagctgggggtagttgg (dG*dC*dA*dC*dA*dG*dC*dT*dG*dG*dG*dG*dG*dT*dA*dG*dT*dT*dG*dG; antisense) | +++ (“+++” when the suppression rate was at least 70%) | + (“+” when the suppression rate was at least 30%)
33 | H011: gcgaccggagggatttcctg (GCGACCGGAGGGATTTCCTG; antisense; DNA, all phosphorothioate, methylation of C not given here) | ++ (“++” when the suppression rate was at least 50%) | + (“+” when the suppression rate was at least 30%)
34 | H173: agctgcatctggtaccataa (dA*dG*dC*dT*dG*dC*dA*dT*dC*dT*dG*dG*dT*dA*dC*dC*dA*dT*dA*dA; antisense) | +++ (“+++” when the suppression rate was at least 70%) | ++ (“++” when the suppression rate was at least 50%)
35 | H009: agccctcgcgcacggcccgc (AGCCCTCGCGCACGGCCCGC; antisense; DNA, all phosphorothioate, methylation of C not given here) | +++ (“+++” when the suppression rate was at least 70%) | + (“+” when the suppression rate was at least 30%)
36 | H143 + 12: tctgaggggggtttggctta (TCTGAGGGGGGTTTGGCTTA; antisense; DNA, all phosphorothioate, methylation of C not given here) | – | + (“+” when the suppression rate was at least 30%)
37 | H168: caagcaggatatttcaagtt (dC*dA*dA*dG*dC*dA*dG*dG*dA*dT*dA*dT*dT*dT*dC*dA*dA*dG*dT*dT; antisense) | + (“+” when the suppression rate was at least 30%) | –
